Key:
[1] = system: human neutrophils; experiment: Cell Titer Glo viability assay, neutrophils; type: cell-based; conditions: 24 h, up to 10 µM
Description: All blood samples from healthy donors who participated in this study were obtained after informed consent in accordance with relevant guidelines and regulations given by the ACE Independent ethics committee for Jubilant Biosys Ltd and Office of Clinical Investigations at Boston Children’s Hospital. The ACE Independent ethics committee, Bangalore, approved the use of human whole blood/PBMC/Enriched Subset in Jubilant Biosys Ltd investigations, Drug Controller General of India (DCGI) Reg No. ECR/141/Indt/KA/2013. Briefly, 10 mL K2EDTA vacutainers were used to collect fresh blood from healthy donors (BD vacutainer, Catalog No: BD 367525). A total of 50 ml of blood was taken from a single, healthy human donor. Neutrophils were isolated from human blood using the EasySep Direct Human Neutrophil Isolation Kit, according to the manufacturer's instructions (Stem Cell Technology, Catalog No: 19666). For investigations conducted at Boston Children’s Hospital, experimental procedure was approved by the Office of Clinical Investigations at Boston Children’s Hospital (protocol number IRB-P00003283). […]
The CellTiter-Glo luminescent cell viability assay was performed on neutrophils/peripheral blood mononuclear cells according to the manufacturer’s instructions (Promega, catalog number: G7570)[35]. […] Luminescence was recorded with Perkin Elmer envision 2103 multilabel reader.

[2] = system: PBMCs; experiment: Cell Titer Glo viability assay, PBMC; type: cell-based, human; conditions: 24 h, up to 10 µM
Protocol: In a K2EDTA vacutainer, 50 mL blood from a healthy human donor was collected, diluted 1:1 with PBS, and gently layered on Histopaque-1077. The tube was centrifuged at 400 g for 30 min at room temperature in a swinging bucket rotor without brakes or acceleration. After centrifugation, the tubes were gently removed from the centrifuge to avoid disturbing the layers of RBC at the bottom, PBMC in the middle, and clear supernatant at the top. Plasma and platelet-rich upper layer was aspirated using a sterile pipette leaving the mononuclear cell layer (buffy coat) undisturbed at the interphase. This buffy coat layer was transferred with care to a fresh conical 50 mL tube, resuspended in PBS buffer and the tube was centrifuged for 10 min at 300 g at room temperature, and the resultant cell pellet was resuspended in complete RPMI medium. After repeating this step twice, the resultant isolated cells were used for the experiments.
The CellTiter-Glo luminescent cell viability assay was performed on neutrophils/peripheral blood mononuclear cells according to the manufacturer’s instructions (Promega, catalog number: G7570)[35]. Breifly, 0.25 million cells of Neutrophils /PBMC were seeded in a black 96 well clear bottom plate. Compound was added at desired concentrations in 1% DMSO. […] Luminescence was recorded with Perkin Elmer envision 2103 multilabel reader.

[3] = Microsomal stability, HLM; type: in vitro ADME, human; conditions: 1 µM, liver microsomes 0.5 mg/mL; one range given for HLM/MLM/DLM/RLM
Protocol: Microsomal stability: Liver microsomes (0.5 mg/mL) from different species were incubated with JBI-589 (1 µM) with or without NADPH (1 mM) at 37 °C for 30 min in potassium phosphate buffer (pH 7.4) and then reaction was stopped with quenching solution (0.5% Formic acid in internal standard (IS) containing ACN). Resulting samples were centrifuged and supernatant was taken for LC–MS/MS analysis. Percent metabolism was calculated as follows: % Metabolized: [1 − (test area ratio/control area ratio)] *100.

[4] = Mice PK study; type: in vivo, Balb/c mice
Description: Institutional Animal Ethical Committee (IAEC) of Jubilant Biosys Ltd (IAEC/JDC/2019/188R (for Mice) nominated by CPCSEA (Committee for the Purpose of Control and Supervision of Experiments on Animals) approved the mice pharmacokinetic experiments. Male Balb/c mice (~ 6–8 weeks old with body weight range of 22–25 g) were procured from Vivo Biotech, Hyderabad, India. Rodent feed (manufactured by Altromin Spezialfutter GmbH & Co. KG., ImSeelenkamp20, D-32791 Lage), and water was provided ad libitum. Intravenous (IV) and oral (PO) pharmacokinetics studies were done at doses of 2 mg/Kg and 10 mg/Kg, respectively at a dose volume of 10 mL/Kg. Sparse sampling was done with three mice at each time point. Blood (~ 100 µL) was collected from retro-orbital plexus at 0.12, 0.25, 0.5, 1, 2, 4, 8 and 24 h for IV and 0.25, 0.5, 1, 2, 4, 8, 10 and 24 h for PO route, in tubes containing K2 and EDTA as anticoagulant. It was centrifuged for 5 min at 10,000 rpm in a refrigerated centrifuge (Biofuge, Heraeus, Germany) maintained at 4 °C for plasma separation. For oral dosing of JBI-589 suspension formulation was prepared using 0.5% Tween-80 and 0.5% methyl cellulose (0.5% in water), while for IV dosing 5% DMSO, 5% Solutol:ethanol (1:1, v/v) and 90% normal saline was used.

[5] = system: collagen induced arthritis; experiment: Collagen induced arthritis model in DBA/1 mice; type: in vivo; conditions: Dexamethasone dose not given
[6] = male, Balb/c, mouse, plasma, 2 mg/kg, IV
[7] = male, Balb/c, mouse, plasma, 10 mg/kg, PO
[8] = JBI-589 50 mg/kg po BID, Etanercept 25 mg/kg IP day 31–45

In the case of Cc1c(-c2cc3ccccc3n2Cc2ccc(F)cc2)nc2cc(C(=O)N3CCC[C@@H](N)C3)ccn12 [JBI-589, (R)-(3-aminopiperidin-1-yl)(2-(1-(4-fluorobenzyl)-1H-indol-2-yl)-3-methylimidazo[1,2-a]pyridin-7-yl)methanone], the viability of neutrophils [1] is reported as “minimal or no changes”, the “viability of PBMCs” value [2] is reported as “minimal or no changes” and the “HLM % metabolized @ 30 min” value [3] is reported as 25-50%. For the same compound, the t1/2 ([4]; 10 mg/kg, PO) was 6.3 h, the AUC(0-inf) [4, 6] was 4380 ng·h/mL and the AUC(0-t) [4, 6] was 3960 ng·h/mL. It also gave a C0 [4, 6] of 968 ng/mL, a Cmax [4, 6] of 828 ng/mL and a Vd [4, 6] of 5.24 L/kg. It also gave a clearance [4, 6] of 7.61 mL/min/kg, a half-life [4, 6] of 8 h and an AUC(0-inf) [4, 7] of 13500 ng·h/mL. It also gave an AUC(0-t) [4, 7] of 12500 ng·h/mL, a Cmax [4, 7] of 874 ng/mL and a bioavailability [4, 7] of 63%. The clinical score ([5]; JBI-589 50 mg/kg po BID day 0-45, Etanercept 25 mg/kg IP day 31–45) was “significantly decreased”, the “bone erosion (histopathology)” value [5, 8] was “significantly decreased” and the “joint inflammation (histopathology)” value [5, 8] was “significantly decreased”. The “pannus formation (histopathology)” value [5, 8] was “significantly decreased”, the spleen weight ([5]; day 45, JBI-589 50 mg/kg po BID) was “no adverse effect” and the body weight ([5]; end of study, JBI-589 50 mg/kg po BID) was “no adverse effect”.

From PMC9950073, “Alleviation of arthritis through prevention of neutrophil extracellular traps by an orally available inhibitor of protein arginine deiminase 4” (Scientific Reports, 2023)
